This is an account of results in ChEMBL document CHEMBL6096699, “Tröger's Base as a Potential Bridge to Type-I Photosensitizers: Mechanism and Antitumor Applications” (J Med Chem, 2025).

A short description of series [1]: Photophysical property of the compound assessed as fluorescence quantum yield. Type of series: physicochemical.
Series [2] in a line: Dark toxicity in human HBE cells assessed as cell viability incubated for 24 hrs in dark by MTT assay. Type of series: cell-based. A general note: Formazan colour is commonly taken as a measure of viable cells.
Series [3] is described as follows: Induction of type-1 ROS generation in tetrahydrofuran assessed as fold increase in DHR123 fluorescence intensity at 0.5 uM followed by LED white light irradiation at 1.8 mWcm/2 for 300 sec by DCFH staining based analysis. Type of series: functional.
Series [4] can be described thus: Induction of type-1 ROS generation in tetrahydrofuran assessed as increase in singlet oxygen production by measuring ABDA absorption peak at 0.5 uM followed by LED white light irradiation at 1.8 mWcm/2 for 300 sec by DCFH staining based analysis. Type of series: functional.
The nature of series [5]: Induction of type-1 ROS generation in tetrahydrofuran at 0.5 uM followed by LED white light irradiation at 1.8 mWcm/2 for 300 sec by DCFH staining based analysis. Type of series: functional.
The subject of series [6] is A549. Put plainly: Induction of intracellular ROS generation in human A549 cells by measuring red fluorescence at 0.4 to 1.2 uM incubated for 24 hrs in presence of LED light irradiation at 1.8 mW cm/2 by DHE based fluorescence microscopy analysis. It is filed as functional, cell-based. As to conditions: dose 0.4-1.2 µM.
Series [7] concerns A549. Put plainly: Inhibition of cell migration in human A549 cells at 0.75 uM preincubated for 12 hrs followed by LED light irradiation 1.8 mW cm/2 for 2 hrs and measured after 48 hrs by wound healing assay. Type of series: functional, cell-based. As to conditions: time 62.0 hrs.
Series [8] has as its system A549. Put plainly: Inhibition of cell migration in human A549 cells assessed as appearance of loose cells at 0.75 uM preincubated for 12 hrs followed by LED light irradiation 1.8 mW cm/2 for 2 hrs and measured after 48 hrs by wound healing assay. Type of series: functional, cell-based. As to conditions: time 62.0 hrs.
For series [9], the system named is A549. Put plainly: Inhibition of cell migration in human A549 cells at 0.75 uM preincubated for 12 hrs followed by incubation under dark condition and measured after 48 hrs by wound healing assay. Type of series: functional, cell-based. As to conditions: time 60.0 hrs.
The subject of another series is MDA-MB-231. Put plainly: Phototoxicity against human MDA-MB-231 cells assessed as reduction in cell proliferation at 0.156 to 10 uM irradiated with LED light at 1.8 mWcm/2 for 2 hrs and measured after 24 hrs under normoxia condition by MTT assay. It is filed as functional, cell-based. To be noted: dose 0.156-10 µM, time 26.0 hrs.
A further series deals with MCF7. Put plainly: Phototoxicity against human MCF7 cells assessed as reduction in cell proliferation at 0.156 to 10 uM irradiated with LED light at 1.8 mWcm/2 for 2 hrs and measured after 24 hrs under normoxia condition by MTT assay. To be noted: dose 0.156-10 µM, time 26.0 hrs. Type of series: functional, cell-based.
In series [10] the test system is A549. In words: Induction of intracellular ROS generation in human A549 cells by measuring red fluorescence at 0.4 to 1.2 uM incubated for 24 hrs under dark condition by DHE based fluorescence microscopy analysis. As to conditions: dose 0.4-1.2 µM. Type of series: functional, cell-based.
Series [11] in a line: Induction of type-1 ROS generation in methanol assessed as generation of OH at 0.5 uM followed by Xe lamp irradiation for 5 mins by DCFH staining based analysis. It is filed as functional.
Series [12] relates to A549. Put plainly: Inhibition of cell migration in human A549 cells assessed as appearance of blurred cells at 0.75 uM preincubated for 12 hrs followed by LED light irradiation 1.8 mW cm/2 for 2 hrs and measured after 48 hrs by wound healing assay. It is filed as functional, cell-based. To be noted: time 62.0 hrs.
Series [13] in a line: Induction of type-1 ROS generation in methanol assessed as generation of O2 at 0.5 uM followed by Xe lamp irradiation for 5 mins by DCFH staining based analysis. Type of series: functional.
The nature of series [14]: Developmental toxicity in wild type AB zebrafish assessed as effect on morphological abnormalities at 1.57 to 50 uM incubated for 72 hrs followed by LED light irradiation at 1.8 mW cm/2. Set-up: species or system Danio rerio. As to conditions: in vivo, dose 1.57-50 µM.
Series [15] deals with A549. Put plainly: Phototoxicity against human A549 cells assessed as reduction in cell proliferation at 0.156 to 10 uM irradiated with LED light at 1.8 mWcm/2 for 2 hrs and measured after 24 hrs under normoxia condition by MTT assay. Type of series: functional, cell-based. As to conditions: dose 0.156-10 µM, time 26.0 hrs.
Series [16] deals with A549. Put plainly: Inhibition of cell migration in human A549 cells assessed as appearance of blurred cells at 0.75 uM preincubated for 12 hrs followed by incubation under dark condition and measured after 48 hrs by wound healing assay. It is filed as functional, cell-based. To be noted: time 60.0 hrs.
Series [17] concerns A549. In words: Inhibition of cell migration in human A549 cells assessed as appearance of loose cells at 0.75 uM preincubated for 12 hrs followed by incubation under dark condition and measured after 48 hrs by wound healing assay. It is filed as functional, cell-based. To be noted: time 60.0 hrs.
Series [18] in a line: Developmental toxicity in wild type AB zebrafish assessed as effect on morphological abnormalities at 1.57 to 50 uM incubated for 72 hrs under dark condition. Further details: species or system Danio rerio. As to conditions: in vivo, dose 1.57-50 µM.
In a further series the test system is HepG2. In words: Phototoxicity against human HepG2 cells assessed as reduction in cell proliferation at 0.156 to 10 uM irradiated with LED light at 1.8 mWcm/2 for 2 hrs and measured after 24 hrs under normoxia condition by MTT assay. Type of series: functional, cell-based. To be noted: dose 0.156-10 µM, time 26.0 hrs.

Activity calls are given as the source filed them. The rule behind the calls is not given here.

Turning to `CCN(CC)c1ccc2cc(C(=O)/C=C/c3cc4c(cc3OC)N3Cc5cc(Br)c(OC)cc5N(C4)C3)c(=O)oc2c1`, in series [1], the Fluorescence quantum yield worked out at 0.16. Moreover, the Activity result in series [2] was “Toxic”. Moreover, the fold change (FC) in [3] was 17.4. Besides, the result in series [4] was inactive. Further, the outcome in series [5] was Active.

With `CCN(CC)c1ccc2cc(C(=O)/C=C/c3ccc4c(c3)CN3CN4Cc4cc(C=O)ccc43)c(=O)oc2c1`, the outcome (in the series on A549 [6]; with MDA-MB-231; with MCF7; in series [11]; in series [13]; in the series with A549 [15]) was Active. The result (in the series with HepG2; in series [5]) was Active. Further, the inhibition result in the series with A549 [7], in the series on A549 [8], in the series on A549 [9], with A549 [12], in the series with A549 [16] and with A549 [17] was “Active” each time. In addition, in series [1], the Fluorescence quantum yield is 0.18. The outcome in the series with A549 [10] was inactive. Further, the Activity result in [2] is given as “Toxic”; in [14] it was “Non-toxic”; in series [18], “Non-toxic”. Moreover, the fold change (FC) in [3] stood at 24.1.

On to `CN(C)c1ccc2cc(C(=O)/C=C/c3ccc4c(c3)CN3CN4Cc4cc(Br)ccc43)c(=O)oc2c1`, for which the Fluorescence quantum yield in series [1] was 0.16. The Activity entry in series [2] was “Toxic”. The result in [11], in [13] and in series [5] was Active. Moreover, the fold change (FC) in [3] came out at 25.5.
